Assay results published in ChEMBL document CHEMBL5579815, “Novel angiogenesis inhibitors with superoxide anion radical amplification effect: Surmounting the Achilles' heels of angiogenesis inhibitors and photosensitizers” (Eur J Med Chem, 2024).

How the values were obtained:
SK-MEL-28 [1] = test: (§1) Induction of apoptosis in human SK-MEL-28 cells assessed as late apoptotic cells at 2 uM preincubated for 24 hrs under hypoxic condition followed by media removal and irradiated with 650 nm 10 mW/cm2 light for 15 mins under hypoxic condition by Annexin V-FITC/propidium iodide staining based flow cytometry (reference value: 1.95%); format: functional
SK-MEL-28 [2] = test: as §1, with “viable” for “late apoptotic”, “93.62%)” for “1.95%)”; format: functional; settings: SK-MEL-28, light or radiation study, read-out: Activity
[3] = Drug uptake in human EA.hy 926 cells at 1 uM measured after 24 hrs by flow cytometry; format: ADME, cell-based; settings: ea.hy 926, 24 h
SK-MEL-28 [4] = test: as §1, with “at 1” for “at 2”; format: functional
SK-MEL-28 [5] = test: (§2) Cytotoxicity against human SK-MEL-28 cells assessed as reduction in cell viability preincubated for 24 hrs under hypoxic condition followed by media removal and irradiated with 650 nm 10 mW/cm2 light for 15 mins under hypoxic condition prior to media replacement and measured after 24 hrs by MTT assay; format: functional, cell-based; settings: SK-MEL-28, light or radiation study
SK-MEL-28 [6] = test: as §2, with “normoxic” for “hypoxic”; format: functional, cell-based; settings: SK-MEL-28, light or radiation study
[7] = Induction of ROS generation in methanol solution assessed as increase in superoxide anion radical level by measuring fold increase in DHR123 fluorescence intensity at 10 uM irradiated with 650 nm 10 mW/cm2 light for upto 15 mins by DHR123 probe based fluorescence spectra analysis relative to control; format: functional
SK-MEL-28 [8] = test: as §1, with “at 0.5” for “at 2”; format: functional
SK-MEL-28 [9] = test: as §1, with “necrotic” for “late apoptotic”, “2.63%)” for “1.95%)”; format: functional
SK-MEL-28 [10] = test: as §1, with “early” for “late”, “normoxic” for “hypoxic”, “1.8%)” for “1.95%)”; format: functional
HEK293 = test: Dark toxicity in HEK293 cells assessed as reduction in cell viability at 0.078 to 10 uM by MTT assay; format: cell-based; settings: human, hek293, 10 µM; dose 0.078-10 µM
SK-MEL-28 [11] = test: as §1, with “as necrotic” for “as late apoptotic”, “at 0.5” for “at 2”, “under normoxic” for “under hypoxic”, “value: 2.63%)” for “value: 1.95%)”; format: functional

Drug uptake [3]: Active
Compound: CCN(CC)c1ccc2nc3c4ccccc4/c(=N\CCCCCCNC(=O)c4cc(Oc5ccc(NC(=O)Nc6ccc(Cl)c(C(F)(F)F)c6)cc5)ccn4)cc-3sc2c1
Activity (SK-MEL-28 [1]): 17.67%
viability at 2 µM (SK-MEL-28 [2]): 53%
Activity (SK-MEL-28 [4]): 7.57%
IC50 (SK-MEL-28 [5]): 0.158 µM
IC50 (SK-MEL-28 [6]): 0.1 µM
fold change (FC) [7]: 6.6
Activity (SK-MEL-28 [8]): 7.05%
Activity (SK-MEL-28 [9]): 18.77%
Activity (SK-MEL-28 [10]): 39.5%
Activity (HEK293): Non-Toxic
Activity (SK-MEL-28 [11]): 11.1%
